What was measured:
[1] = Preclinical pharmacokinetic test in rats; type: in vivo; conditions: rat, po; male SD rats, intragastric administration (p.o.), 10 mg/kg, plasma
Experimental: Healthy adult SD rats, male, aged 6-8 weeks, with a body weight of 200-300 g, purchased from Vital River Company; EDTA-Na2 anticoagulant; and analytical balance, animal weighing scale, magnetic stirrer, refrigerated centrifuge, single-channel manual pipette, and the like.
• 1. Drug preparation: approximately 10 mg of the test sample was accurately weighed and dissolved in 5% DMSO (after conversion), and then 10% solutol HS-15 and 85% normal saline were added. The mixture was subjected to ultrasonic processing and mixed by vortexing to obtain a solution at a concentration of 1 mg/mL, which was freshly prepared before use. 0.2 mL of the sample was transferred into a 1.5 mL centrifuge tube and stored at -80°C for administration solution concentration analysis. • 2. Animal preparation: the rats were fed in rat cages, and fasted (for at least 10 hours) with free access to water one day before the experiment. On the day of experiment, the rats were weighed and marked at the tail respectively. Blank blood samples were collected respectively before drug administration. The blood samples were collected via the tail vein. • 3. Drug administration: • administration route: intragastric administration (p.o.); • administration dose: 10 mg/kg; • administration volume: 10 mL/kg; and • operation procedure: the rat was restrained in an upright position with a left hand wearing bite-resistant gloves, a 16-gauge gavage needle was inserted through the oral cavity into the pharynx and advanced without obvious resistance, and then the drug was then injected into the stomach. • 4. Sample collection: whole blood (0.1 mL) was collected from each test animal before drug administration and at 0.5 hours, 1 hour, 2 hours, 4 hours, 6 hours, 8 hours, 12 hours and 24 hours after drug administration, transferred into EDTA-Na2 anticoagulant tubes, mixed evenly by inverting the tubes 3-4 times, and then centrifuged at 10000 g and 4°C for 5 minutes to separate plasma. The obtained plasma samples were stored at -80°C for later analysis. The blood samples were collected via the tail vein.
Specific operation: the rat was secured in a restrainer to fully expose its tail, the tail was wiped with alcohol to make the surface skin absorb the alcohol, so as to induce obvious venous dilation. A suitable vein was selected from two sides, and the needle was inserted at approximately one-third of the distance from the tail tip. An insulin syringe was used as the injection syringe, the needle was inserted with the bevel facing upward, and the needle was immediately adjusted to a parallel position after piercing the skin. Slight sliding resistance of the needle inside the vessel and blood reflux in the injection syringe indicated successful venous access. Approximately 0.1-0.2 mL of whole blood was drawn. Gentle compression was applied for hemostasis after needle removal.
Preparation of standard curve sample: 25 µL of blank rat plasma was transferred into a centrifuge tube respectively, 25 µL of prepared serial standard solution (prepared in methanol) was added, and then 200 µL of internal standard solution (prepared in methanol) was added. The mixture was mixed by vortexing for 2 minutes, and centrifuged at 10000 g and 4°C for 10 minutes.
Treatment of the unknown plasma sample: 25 µL of drug-containing rat plasma was collected respectively, and then 25 µL of methanol and 200 µL of internal standard solution were added sequentially. The mixture was mixed by vortexing for 2 minutes, and centrifuged at 10000 g and 4°C for 10 minutes. The supernatant was collected for LC/MS/MS detection.
A quantitative detection method for the test compound was established by using a Shimadzu liquid chromatography system and a Triple Quad TM 6500+AB mass spectrometer. A concentration of a parent drug in plasma was determined. Plasma concentration-time curves were plotted, and major pharmacokinetic parameters were calculated via a non-compartmental model in winnonlin Phoenix software. […]

c-Kit kinase = c-Kit kinase (Homo sapiens, UniProt P10721); experiment: Enzyme activity assay (c-Kit kinase); type: biochemical
c-Kit kinase, sequence (P10721 26-976): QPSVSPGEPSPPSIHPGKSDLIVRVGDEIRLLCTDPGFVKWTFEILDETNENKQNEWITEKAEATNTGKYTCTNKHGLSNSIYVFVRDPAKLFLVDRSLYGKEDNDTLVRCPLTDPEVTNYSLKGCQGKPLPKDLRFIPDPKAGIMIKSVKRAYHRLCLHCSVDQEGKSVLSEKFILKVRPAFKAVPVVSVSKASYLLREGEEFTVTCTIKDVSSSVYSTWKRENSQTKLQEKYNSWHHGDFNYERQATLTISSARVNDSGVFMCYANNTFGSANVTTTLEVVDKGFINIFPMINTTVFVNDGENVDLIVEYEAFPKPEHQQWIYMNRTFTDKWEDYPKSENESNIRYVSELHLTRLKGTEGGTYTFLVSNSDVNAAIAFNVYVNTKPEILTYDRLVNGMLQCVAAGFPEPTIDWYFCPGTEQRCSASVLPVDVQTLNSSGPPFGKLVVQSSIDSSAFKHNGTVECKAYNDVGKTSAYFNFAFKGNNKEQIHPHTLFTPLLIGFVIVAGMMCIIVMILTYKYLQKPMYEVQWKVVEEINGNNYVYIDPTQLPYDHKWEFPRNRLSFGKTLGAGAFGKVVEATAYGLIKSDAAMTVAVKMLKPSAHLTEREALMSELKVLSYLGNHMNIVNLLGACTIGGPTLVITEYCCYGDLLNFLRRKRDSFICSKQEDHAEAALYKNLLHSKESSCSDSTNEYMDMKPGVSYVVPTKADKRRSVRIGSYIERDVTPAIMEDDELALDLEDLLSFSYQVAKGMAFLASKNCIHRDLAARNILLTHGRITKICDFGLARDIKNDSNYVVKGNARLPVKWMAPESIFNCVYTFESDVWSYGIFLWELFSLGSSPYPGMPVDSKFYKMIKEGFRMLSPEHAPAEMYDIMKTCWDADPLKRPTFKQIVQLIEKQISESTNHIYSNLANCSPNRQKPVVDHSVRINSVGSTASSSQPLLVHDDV
Experimental: Biological activity tests were performed on partial compounds synthesized in the above examples and comparative examples below. […]

[2] = Brain-penetrating pharmacokinetic test; type: in vivo, Sprague-Dawley (SD) rat; conditions: SD rats, p.o., 10 mg/kg, single administration; for Kp: Sprague-Dawley, rat, brain tissue / plasma, po, read-out: Total drug brain-to-plasma ratio (B/P)
Experimental: Administration vehicle: 5% DMSO+10% Solutol HS15+85% normal saline
Formulation preparation process: an appropriate amount of powder was weighed, an appropriate volume of DMSO was added, and the mixture was mixed by vortexing. Subsequently, an appropriate volume of Solutol solution was added and vortexed, then normal saline was added, and the mixture was subjected to vortexing and ultrasonic processing to form a homogeneous and clear formulation solution.
The experimental animals were fed in an animal room. The animal room was equipped with an air-conditioning system, with adequate ventilation, an indoor temperature was maintained at 20-26°C, and a relative humidity was maintained at 40%-70%. Artificial lighting was applied in the animal room, with a 12-hour light/dark cycle (except for working lights turned on during experimental operations and cleaning). The experimental animals had free access to food and water.
The purchased animals were fed normally for at least 3 days, rats with healthy physical conditions were included in the experiment, and each rat was marked with a tail number. Animals in an oral administration group were fasted overnight one day before drug administration, and fed 4 hours after drug administration, with free access to water.
• Administration route: intragastric administration (p.o.) • Administration concentration: 1 mg/mL • Administration dose: 10 mg/kg • Administration volume: 10 mL/kg • Administration frequency: single administration
Before drug administration, a state of the administration formulation was examined, the homogeneity of the formulation was ensured by vortexing, stirring or shaking, and a theoretical administration volume for each SD rat in every group was calculated according to the following formula. Theoretical; administration volume(mL) = (Dose (mg⋅kg^−1))/(Formulation; concentration(mg⋅mL^−1)) × Body; weight(kg) [formula]
The rats were sampled at 1 hour, 2 hours, 4 hours, 6 hours, 8 hours and 24 hours after drug administration.
Plasma: at each time point, 0.25 mL of whole blood was collected from the jugular vein and transferred into a test tube containing an anticoagulant EDTA-K2 (7 µL, 10% EDTA-K2 solution), placed on wet ice, and centrifuged within 1 hour (2,000 g, 2-8°C, 10 minutes), and then, the plasma was taken. The plasma was stored in a pre-chilled centrifuge tube, rapidly frozen in dry ice, and then stored in an ultra-low temperature refrigerator at -60°C or lower until LC-MS/MS analysis.
Cerebrospinal fluid: the rats were euthanized via a carbon dioxide process, and approximately 60 µL of cerebrospinal fluid was collected by puncture. 1 mL syringe was used, with the bevel of the needle facing upward, the needle tip was inserted into the subarachnoid space in a nearly horizontal position, then the needle was fixed, and the cerebrospinal fluid was slowly aspirated. The collected samples were frozen on dry ice within 30 minutes, and then transferred to an environment at -90°C to -60°C.
Brain tissue: cardiac perfusion was performed first, and then the brain tissue was isolated. Under deep terminal anesthesia, approximately 80 mL of normal saline was used for cardiac perfusion, and residual blood in the brain tissue was flushed out of cerebral circulation. The isolated brain tissue was gently rinsed once with ice-cold normal saline, excess water was removed, weighed, and then transferred to a frozen storage environment at -90°C to -60°C.
A quantitative detection method for the test compound was established by using a Shimadzu liquid chromatography system and a Triple Quad TM 6500+AB mass spectrometer. A concentration of a parent drug in a sample was analyzed. Quality control samples were used for variation control over analysis results, and the accuracy of the quality control samples should fall within the range of 80%-120%.
Pharmacokinetic parameters: Tmax, Cmax, AUC (0-t), AUC (0-∞), T1/2, MRT (0-∞), and the like were calculated by using winnonlin Phoenix 8.1.0.3530. […]

| SMILES | AUC [1] [ng·h/mL] | Cmax [1] [ng/mL] | IC50 (c-Kit kinase) [nM] | Total drug concentration in brain tissue [2] [ng·h/mL] | Total drug concentration in plasma [2] [ng·h/mL] | Kp [2] |
| --- | --- | --- | --- | --- | --- | --- |
| [2H]C([2H])([2H])N1CCN(C([2H])([2H])c2ccc(C(=O)Nc3ccc(C)c(Nc4nc(-c5cccnc5)cs4)c3)cc2)CC1 [Compound T-04] | 3260 | 486 |  |  |  |  |
| [2H]C([2H])([2H])N1CCN(C([2H])([2H])c2ccc(C(=O)Nc3ccc(C(F)(F)F)c(Nc4nc(-c5cccnc5)cs4)c3)c(F)c2)CC1 [Compound T-18] | 4000 | 501 | 3.12 |  |  |  |
| [2H]C([2H])(c1ccc(C(=O)Nc2ccc(C(F)(F)F)c(Nc3nc(-c4ccc(F)nc4)cs3)c2)c(F)c1)N1CCN(C)CC1 [Compound T-16] | 4010 | 516 | 2.12 | 3129.79 | 4012.56 | 0.78 |
| [2H]C([2H])([2H])N1CCN(C([2H])([2H])c2ccc(C(=O)Nc3ccc(C(F)(F)F)c(Nc4nc(-c5cccnc5)cs4)c3)cc2)CC1 [Compound T-15] |  |  | 3.56 |  |  |  |
| [2H]C([2H])(c1ccc(C(=O)Nc2ccc(C(F)(F)F)c(Nc3nc(-c4cccnc4)cs3)c2)c(F)c1)N1CCN(C)CC1 [Compound T-21] |  |  | 1.36 | 2763.22 | 3891.87 | 0.71 |
| [2H]C([2H])([2H])N1CCN(Cc2ccc(C(=O)Nc3ccc(C(F)(F)F)c(Nc4nc(-c5cccnc5)cs4)c3)c(F)c2)CC1 [Compound T-20] |  |  | 2.1 | 3092.40 | 4123.20 | 0.75 |
| [2H]C([2H])([2H])N1CCN(C([2H])([2H])c2ccc(C(=O)Nc3ccc(C)c(Nc4nc(-c5cccnc5)cs4)c3)c(F)c2)CC1 [Compound T-08] |  |  | 3.89 | 1798.12 | 3269.32 | 0.55 |
| [2H]C([2H])(c1ccc(C(=O)Nc2ccc(C(F)(F)F)c(Nc3nc(-c4cccnc4)cs3)c2)cc1)N1CCN(C)CC1 [Compound T-12] |  |  | 2.13 |  |  |  |
| [2H]C([2H])(c1ccc(C(=O)Nc2ccc(C(F)(F)F)c(Nc3nc(-c4ccc(F)nc4)cs3)c2)cc1)N1CCN(C)CC1 [Compound T-11] |  |  | 3.55 |  |  |  |
| [2H]C([2H])([2H])N1CCN(C([2H])([2H])c2ccc(C(=O)Nc3ccc(C(F)(F)F)c(Nc4nc(-c5ccc(F)nc5)cs4)c3)c(F)c2)CC1 [Compound T-17] | 4290 | 533 | 1.35 |  |  |  |
| [2H]C([2H])([2H])N1CCN(Cc2ccc(C(=O)Nc3ccc(C(F)(F)F)c(Nc4nc(-c5ccc(F)nc5)cs4)c3)c(F)c2)CC1 [Compound T-19] |  |  | 2.11 |  |  |  |
| [2H]C([2H])([2H])N1CCN(Cc2ccc(C(=O)Nc3ccc(C)c(Nc4nc(-c5cccnc5)cs4)c3)c(F)c2)CC1 [Compound T-01] | 2690 | 419 | 1.67 | 1370.43 | 2687.12 | 0.51 |
| Cc1ccc(NC(=O)c2ccc(CN3CCN(C)CC3)cc2)cc1Nc1nc(-c2cccnc2)cs1 [Masitinib, reference compound] | 1770 | 321 |  | 356.98 | 1771.48 | 0.2 |
| [2H]C([2H])(c1ccc(C(=O)Nc2ccc(C)c(Nc3nc(-c4cccnc4)cs3)c2)cc1)N1CCN(C)CC1 [Compound T-02] | 2370 | 397 |  |  |  |  |
